Measured values from ChEMBL document CHEMBL1201862, “PubChem BioAssay data set” (2004).
Active and inactive are the calls of the source.

Tests used:
[1] = target: T1, Rac GTPase-activating protein 1 (Homo sapiens, UniProt Q9H0H5); test: blockers of MgcRacGAP-driven Rac1 GTP hydrolysis – biochemical, ADP Hunter fluorescence, primary and confirmatory, confirmation (AID 624330); format: functional
T1 sequence (Q9H0H5 whole entry): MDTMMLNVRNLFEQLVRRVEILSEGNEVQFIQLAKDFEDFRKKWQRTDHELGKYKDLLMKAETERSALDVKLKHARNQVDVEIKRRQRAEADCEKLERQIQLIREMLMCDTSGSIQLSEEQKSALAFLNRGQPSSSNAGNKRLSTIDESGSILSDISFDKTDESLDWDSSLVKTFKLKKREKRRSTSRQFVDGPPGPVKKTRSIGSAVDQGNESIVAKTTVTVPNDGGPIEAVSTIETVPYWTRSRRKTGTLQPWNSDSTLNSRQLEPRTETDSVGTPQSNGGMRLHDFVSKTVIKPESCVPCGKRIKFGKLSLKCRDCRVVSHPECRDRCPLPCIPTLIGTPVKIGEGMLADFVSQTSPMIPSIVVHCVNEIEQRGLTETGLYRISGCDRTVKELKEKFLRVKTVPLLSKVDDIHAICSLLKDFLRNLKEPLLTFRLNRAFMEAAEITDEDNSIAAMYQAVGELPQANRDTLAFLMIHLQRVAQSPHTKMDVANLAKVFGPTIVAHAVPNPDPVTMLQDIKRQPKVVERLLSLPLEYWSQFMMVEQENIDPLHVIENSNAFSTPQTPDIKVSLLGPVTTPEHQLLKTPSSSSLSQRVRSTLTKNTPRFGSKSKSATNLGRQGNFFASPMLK

[2] = alpha-synuclein stem-loop luciferase translation blockers – H4 neuroglioma cells, luminescence, confirmation (AID 1988); format: functional, cell-based
[3] = luciferase reporter signal suppression in cells – H4 neuroglioma cells, luminescence, dose response (AID 1990); format: functional, cell-based
[4] = Luminescence Cell-Based Dose Response HTS to Identify Inhibitors of 5'UTR Stem-Loop Driven Prion Protein mRNA Translation in H4 Neuroglioblastoma Cells. [Related pubchem assays: 1827 (Project Summary), 1813 (Primary HTS)]; format: functional
[5] = viability of uninfected HEp-2 cells – cell-based, HTS, cytotoxicity control for RSV inhibitor project, dose response (AID 2410); format: functional; conditions: human respiratory syncytial virus
[6] = target: T2, Calpain-2 catalytic subunit (Sus scrofa, UniProt P43367); test: m-calpain protease blockers, concentration series – biochemical, fluorogenic peptide substrate, dose response (AID 1420); format: functional
T2 sequence (P43367 whole entry): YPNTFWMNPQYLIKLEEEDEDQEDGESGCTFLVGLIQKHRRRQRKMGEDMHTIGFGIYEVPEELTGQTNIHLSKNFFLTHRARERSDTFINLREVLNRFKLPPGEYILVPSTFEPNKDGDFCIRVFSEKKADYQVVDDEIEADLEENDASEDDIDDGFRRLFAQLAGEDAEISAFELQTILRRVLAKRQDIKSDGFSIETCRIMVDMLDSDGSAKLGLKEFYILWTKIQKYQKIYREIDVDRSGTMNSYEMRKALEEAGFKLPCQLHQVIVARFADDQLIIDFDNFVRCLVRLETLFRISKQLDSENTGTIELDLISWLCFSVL

[7] = viability of PTEN-deleted HCT116 cells – cell-based, HCT116 PTEN knockout, dose response (AID 1047); format: functional;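 further: HCT116 colon tumor cells with PTEN knocked out; cells exposed to compound for 60 hours before readout; potency for loss of cell viability measured by luminescence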
[8] = viability of HCT116 lacking mutant beta-catenin – cell-based, human colon tumor, dose response (AID 1045); format: functional;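 further: HCT116 colon tumor cells with beta catenin knocked out; cells exposed to compound for 60 hours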
[9] = NIH-3T3 fibroblast cytotoxicity, dose response, cytotoxicity control, cell-based, fluorescence, Alamar Blue, secondary assay (AID 2327); format: functional;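 further: NIH-3T3 mouse fibroblasts cultured with fluconazole at 8 µg/mL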
[10] = test system: INS1; test: INS-1E survival protection against cytokine death – cell-based, luminescence, retest, dose response (AID 449756); format: functional; conditions: Rattus norvegicus;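 further: cell death triggered by IL-1 beta plus TNF-alpha plus IFN-gamma mixture; protective hits raise ATP signal compared with cytokine alone wells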
[11] = target: Cytochrome P450 2C9 (Homo sapiens, UniProt P11712)
Sequence of Cytochrome P450 2C9 (P11712 whole entry): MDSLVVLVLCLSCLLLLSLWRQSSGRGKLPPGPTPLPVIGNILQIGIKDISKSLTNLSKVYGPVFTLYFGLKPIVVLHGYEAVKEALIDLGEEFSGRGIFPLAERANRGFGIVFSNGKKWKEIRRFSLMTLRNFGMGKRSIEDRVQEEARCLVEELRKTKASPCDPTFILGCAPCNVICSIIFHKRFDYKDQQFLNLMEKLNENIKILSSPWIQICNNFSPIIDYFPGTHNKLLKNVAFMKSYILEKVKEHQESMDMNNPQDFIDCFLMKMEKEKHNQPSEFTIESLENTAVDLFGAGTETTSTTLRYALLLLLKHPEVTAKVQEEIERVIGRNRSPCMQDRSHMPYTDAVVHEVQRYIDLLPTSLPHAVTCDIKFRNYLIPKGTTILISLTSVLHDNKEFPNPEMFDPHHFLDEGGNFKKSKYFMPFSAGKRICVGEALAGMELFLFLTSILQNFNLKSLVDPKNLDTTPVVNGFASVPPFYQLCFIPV

[12] = Luminescence Cell-Based Dose Retest to Confirm Inhibitors of Cancer Stem Cells. [Related pubchem assays (depositor defined):AID2717, AID2721]; format: functional; conditions: Homo sapiens
[13] = test system: Streptococcus sp. 'group A'; test: Streptococcus pyogenes SK(-)GAS viability under kanamycin – luminescence, BacTiterGlo, confirmation, counter-screen for streptokinase expression inhibitor project, dose response (AID 1900); format: functional, organism-based
[14] = test system: Streptococcus; test: GAS UMAA2166 growth inhibition – luminescence, BacTiterGlo, counter-screen for streptokinase expression inhibitor project, dose response (AID 1915); format: functional, organism-based;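 further: potency for reduction of bacterial viability or growth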
[15] = Trypanosoma cruzi growth suppression in host cells – NIH3T3 host cells, beta-gal luminescence, confirmation (AID 2044); format: functional, cell-based;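 further: intracellular parasites grown in NIH/3T3 mouse fibroblasts as host cells; luminescent beta-galactosidase reporter signal from transgenic T. cruzi replicating inside host cells; inhibitors lower the luminescence signal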
[16] = NIH3T3 cell viability loss – ATP luminescence, mouse fibroblasts, counter-screen, dose response (AID 2010); format: functional, cell-based;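 further: cells exposed to compound for about 90 hours before reading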

## CCCCc1nc2ccccc2c(NC(=O)CN2CCN(C)CC2)c1CCC
[1]
  IC50: 50.3 µM (active)

## Oc1ccc(Cl)cc1-c1cc(C(F)(F)C(F)F)nc(-c2ccccc2)n1
[2]
  EC50: > 120 µM (not active)
[3]
  EC50: > 120 µM (not active)
[4]
  EC50: > 120 µM (not active)

## C=CCn1c(SCC(C)=O)nc2scc(-c3ccc(C)o3)c2c1=O
[5]
  CC50: 13.5 µM (active)

## CCOc1ccc(C(=O)C[n+]2ccccc2C)cc1
[2]
  EC50: > 120 µM (not active)
[3]
  EC50: > 120 µM (not active)

## Cc1ccnc(NC(=O)CCCOc2ccc(Cl)cc2C)c1
[6]
  IC50: 0.444 µM (not active)

## Cc1cccc(Oc2ccc(S(=O)(=O)N3CCCCC3)cc2N)c1
[6]
  IC50: 11.2 µM (not active)

## C=CCNc1cnn(-c2ccc(C)cc2)c(=O)c1Sc1ccc(C)cc1
[6]
  IC50: > 50 µM (not active)

## CCOc1cc(C(=O)NCC(C)(C)CNC(=O)c2cc(OCC)c(OCC)c(OCC)c2)cc(OCC)c1OCC
[5]
  CC50: 27.7 µM (active)

## Cc1c2c(nc3ccccc13)CCC(C)C2 (stereo not given)
[5]
  CC50: > 50 µM (active)

## N#CC1=C(N)Oc2cc(O)ccc2C1C1CCCCC1 (stereo not given)
[7]
  EC50: 12.1 µM (active)
[8]
  EC50: 13.2 µM (active)

## FC(F)(F)c1cccc(N2CCC(/N=C/N3CCCCCC3)=N2)c1
[1]
  IC50: 56.4 µM (active)

## Cc1cccc(NC(=O)Nc2cccc(C#N)c2)n1
[5]
  CC50: > 50 µM (active)

## CS(=O)(=O)N1CCc2cc(NC(=O)c3ccc(Cl)cc3Cl)ccc21
[6]
  IC50: 13.7 µM (not active)

## CC(=O)c1nn(-c2cccc(Br)c2)cc1C(=O)c1ccc(C)cc1
[9]
  EC50: > 150 µM (inactive)

## CC(=O)O/N=C/c1c(NCc2ccccc2)nc2c(C)cccn2c1=O
[5]
  CC50: 31.1 µM (active)

## O=C(C1=C[C@H](c2ccc(C(F)(F)F)cc2)C[C@H](OCc2ccc(CO)cc2)O1)N1CCCCCCC1
[6]
  IC50: 14.8 µM (not active)

## C=CCn1c(S)nnc1-c1cc2cccc(OC)c2o1
[5]
  CC50: 21.4 µM (active)

## COc1cc(CNc2ncc(-c3ccc(Br)cc3)n2C)cc(OC)c1O
[1]
  IC50: 52 µM (active)

## C/C(=N\Nc1ccc([N+](=O)[O-])cc1)c1ccc(N)cc1
[1]
  IC50: 109 µM (active)

## CCOC(=O)c1c(NC(=O)C2=C(C)N=C(S)NC2c2ccc(F)cc2)sc(C)c1C (stereo not given)
[2]
  EC50: > 120 µM (not active)
[3]
  EC50: > 120 µM (not active)
[4]
  EC50: > 120 µM (not active)

## CCc1ccc2c(c1)c1nnc(NN)nc1n2CC
[7]
  EC50: 30.8 µM (active)
[8]
  EC50: 31.1 µM (active)

## COc1ccc(C2/C=C\CN(C(=O)Nc3ccc(C(F)(F)F)cc3)CC(=O)N2Cc2ccc(F)cc2)cc1 (stereo not given)
[2]
  EC50: 10.8 µM (active)
[3]
  EC50: 10.2 µM (active)
[4]
  EC50: > 120 µM (not active)
[10]
  AC50: 6.64 µM (active)

## COc1cc(C=O)ccc1OCCCOc1ccccc1C(=O)O
[11]
  AC50: 17.8 µM (inconclusive)

## O=c1c2ccccc2nc(CSc2nnnn2-c2ccccc2)n1-c1ccccc1
[7]
  EC50: 18.1 µM (active)
[8]
  EC50: 17.6 µM (active)

## CN(C)c1ccc(/C=N/N2CCN(Cc3ccccc3Cl)CC2)cc1
[1]
  IC50: 69.6 µM (active)

## C/C(=N\NC(=O)COc1ccc(C(C)(C)C)cc1)c1ccccc1
[6]
  IC50: 5.74 µM (not active)

## CN(C1CCCCC1)S(=O)(=O)c1ccc(S(=O)(=O)N2CCCC2)cc1
[6]
  IC50: 10.4 µM (not active)

## O=[N+]([O-])c1cc(C(F)(F)F)ccc1NCCN=C(S)Nc1ccc(Cl)cc1
[7]
  EC50: 11.7 µM (active)
[12]
  AC50: 3.04 µM (active)
[13]
  EC50: 7.05 µM (active)
[14]
  EC50: 7.65 µM (active)
[8]
  EC50: 14.9 µM (active)

## OC(COc1ccc2cc(Br)ccc2c1)CN1CCCC1 (stereo not given)
[7]
  EC50: 17 µM (active)
[15]
  EC50: 3.4 µM (active)
[16]
  EC50: 11.5 µM (active)
[8]
  EC50: 15.6 µM (active)

## Cc1ccc(C)c(OCC(O)CN2CCC(CN3C(=O)c4cccc5cccc(c45)C3=O)CC2)c1 (stereo not given)
[7]
  EC50: 4.42 µM (active)
[8]
  EC50: 4.8 µM (active)

## Oc1ccc(C=NNc2nc3ccccc3s2)c(O)c1
[1]
  IC50: 88.4 µM (active)

## COc1ccc2cc(Br)ccc2c1CC(=O)NC1CC(C)(C)NC(C)(C)C1
[7]
  EC50: 20.4 µM (active)
[8]
  EC50: 20.8 µM (active)

## O=[N+]([O-])C(=C1Nc2ccccc2N1)C(Cl)=C(Cl)Cl
[6]
  IC50: 27.8 µM (not active)

## O=C(COC(=O)CC1c2ccccc2CCN1S(=O)(=O)c1ccccc1)Nc1ccccc1 (stereo not given)
[6]
  IC50: 8.09 µM (not active)

## Oc1c([C@H](Nc2ccccn2)c2ccccc2)ccc2cccnc12
[11]
  AC50: 6.31 µM (inconclusive)

## Cc1nc(C(=O)O)nn1-c1ccc([N+](=O)[O-])cc1
[2]
  EC50: > 120 µM (not active)
[3]
  EC50: > 120 µM (not active)
[4]
  EC50: 118 µM (active)

## Cc1ccc(N2NC3(CCN(C(N)=O)CC3)NC2=O)cc1
[9]
  EC50: 28.6 µM (active)

## COc1ccc(CN2CCN(Cc3c[nH]c4ccccc34)CC2)c(OC)c1
[1]
  IC50: 104 µM (active)

## Nc1ccc(S(=O)(=O)Nc2cnc3ccccc3n2)cc1 [SULFAQUINOXALINE]
[11]
  AC50: 3.98 µM (inconclusive)

## O=C(N/N=C/c1ccc(O)cc1)c1ccc(COc2cc(Cl)ccc2Cl)o1
[11]
  AC50: 6.31 µM (inconclusive)

## N#Cc1cc([N+](=O)[O-])ccc1NC(=O)COC(=O)C12CC3CC(CC(C3)C1)C2
[6]
  IC50: 14.4 µM (not active)

## COc1ccc(Br)cc1CN1CCN(C(=O)c2ccc(F)cc2)CC1
[1]
  IC50: 212 µM (active)

## COc1cc(/C=N/NC(=O)c2ccc3c(c2)OCO3)ccc1O
[1]
  IC50: 28.5 µM (active)

## CCc1ccc(/C(C)=N\Nc2ccc([N+](=O)[O-])cc2)cc1
[9]
  EC50: > 160 µM (inactive)

## CCc1ccc(-c2cc(C(=O)NCCCn3ccnc3)c3ccccc3n2)s1
[5]
  CC50: 28.4 µM (active)

## CC1CCCCN1C(=O)c1cc(-c2ccc(Cl)c(Cl)c2)on1 (stereo not given)
[6]
  IC50: 3.9 µM (not active)

## Cc1cc(N)n(-c2ccc3ccccc3c2)n1
[11]
  AC50: 35.5 µM (inconclusive)

## COc1ccc(NC(=O)C2CCCN(S(=O)(=O)c3cccc4cccnc34)C2)c(OC)c1 (stereo not given)
[6]
  IC50: 4.57 µM (not active)

## CC(=O)NC(=S)Nc1ccc(-c2nc3ccc(C)cc3s2)cc1
[7]
  EC50: 50 µM (active)
[8]
  EC50: 112 µM (active)

## CC1=CC(C)(C)Nc2ccccc21
[2]
  EC50: > 120 µM (not active)
[3]
  EC50: > 120 µM (not active)
[15]
  EC50: 4.5 µM (active)
[16]
  EC50: > 60 µM (not active)
[4]
  EC50: > 120 µM (not active)

## Oc1ccc(NCc2ccccc2OCc2ccccc2F)cc1
[1]
  IC50: 71.4 µM (active)

## CCOC(=S)SCC(=O)Nc1nc(-c2ccc(Br)cc2)cs1
[2]
  EC50: 5.28 µM (active)
[3]
  EC50: 8.41 µM (active)
[12]
  AC50: 0.722 µM (active)
[4]
  EC50: 8.99 µM (active)

## Cc1ccccc1N1C(=O)C(Oc2ccc(Cl)cc2)C1CNCCCOC(C)C (stereo not given)
[2]
  EC50: > 120 µM (not active)
[3]
  EC50: 27 µM (active)
[4]
  EC50: 119 µM (active)
